# Experimental data published in article PMC9708767, “Synthesis of Polymer Precursor 12-Oxododecenoic Acid Utilizing Recombinant Papaya Hydroperoxide Lyase in an Enzyme Cascade” (Applied Biochemistry and Biotechnology, 2022).
# Tests used:
# [1] = molecular target: HPLCP-N (Carica papaya, UniProt Z9RAA0G2V7); assay: photometric, decrease at […] nm, nonlinear regression; assay type: biochemical; settings: 50 mM potassium phosphate pH 6, 1 M NaCl, 22 °C; 5-100 µM substrate; affinity-enriched enzyme
# Sequence of HPLCP-N (Z9RAA0G2V7 36-496 limits assumed): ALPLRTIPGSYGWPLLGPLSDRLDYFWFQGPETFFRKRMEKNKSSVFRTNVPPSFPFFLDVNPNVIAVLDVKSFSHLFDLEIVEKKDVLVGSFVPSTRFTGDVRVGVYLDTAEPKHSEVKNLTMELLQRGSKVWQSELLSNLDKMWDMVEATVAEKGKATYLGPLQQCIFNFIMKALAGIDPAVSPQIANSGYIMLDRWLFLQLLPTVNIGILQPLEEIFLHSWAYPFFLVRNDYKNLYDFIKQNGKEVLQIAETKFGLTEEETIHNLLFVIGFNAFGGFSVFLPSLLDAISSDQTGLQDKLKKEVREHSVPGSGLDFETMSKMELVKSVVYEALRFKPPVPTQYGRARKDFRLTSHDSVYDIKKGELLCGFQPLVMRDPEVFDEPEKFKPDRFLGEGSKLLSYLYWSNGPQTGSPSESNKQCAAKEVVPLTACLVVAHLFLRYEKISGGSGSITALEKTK
# [2] = molecular target: N-terminally truncated hydroperoxide lyase from Carica papaya (HPL_(CP-N)) (Carica papaya); assay: SEC; Superdex 200 Increase 10/300; 50 mM potassium phosphate buffer pH 7 with 0.5 M NaCl and 0.1% Triton X-100; calibrated with gel filtration markers of 29,000 to 700,000 Da; calculated mass compared with the predicted monomer mass
Km [1],stoichiometry N [2],Compound
140 ± 30 µM,,CCCCC[C@@H](/C=C/C=C\CCCCCCCC(=O)O)OO [13S-HPODE]
150 ± 40 µM,,CC/C=C\C[C@@H](/C=C/C=C\CCCCCCCC(=O)O)OO [13S-HPOTE]
,4,N-terminally truncated hydroperoxide lyase from Carica papaya (HPL_(CP-N)) (enzyme)
